The values that follow are results of earlier work, collected in patent US20050234025A1, “Compositions comprising one or more policosanols and/or policosanoic acids combined with sterol and/or steroid based ascorbic acid derivatives, and uses thereof” (FORBES MEDI-TECH INC., priority 2004, published 2005).

This data set has as its system mice. As to conditions: Ben-David et al.

In the case of `C[C@]12CC[C@H](O)CC1=CC[C@@H]1[C@@H]2CC[C@]2(C)C(=O)CC[C@@H]12` [DHEA, dehydroepiandrostrone], the “effect on cholesterol (anti-hypercholesterolemic effect)” value is reported as “anti-hypercholesterolemic effect”.
